In publication PMC6770473, “Proximity ligation assay to study protein–protein interactions of proteins on two different cells” (Biotechniques, 2018):
“Also recorded” adds a separate entry of the source.

Columns and labels:
CD2–CD58 interaction [1] = experiment: Proximity ligation assay (PLA), Jurkat T cells / HFLS-RA cells co-culture; type: cell-based, human; conditions: for PPI inhibition by BODIPY conjugate (red fluorescence): BODIPY conjugate of SFTI-a, concentration not printed, compared to control without any peptide; for reduction in number of red dots: compared with control, p < 0.001; for PPI inhibition, number of red dots (ImageJ): vs untreated wells, p < 0.0001 (SAS, GLM)
Protocol: (§1) • Both T cells and HFLS-RA cells were grown to 70% confluency. • Approximately 20,000 Jurkat cells were added to each well, and the chamber slides were incubated for 30 min at 37°C with 5% CO2. • Approximately 10,000 HFLS-RA cells were treated with different concentrations of SFTI-a peptide separately for 2 h at 4°C and added over Jurkat cells that were previously coated onto the well chamber slides. • The slides were incubated for 48 h at 37°C with 5% CO2.
• The medium was gently removed from the corners of the wells. • Enough chilled methanol to cover the surface was added to each well for fixing the cells. • After incubating the slides for 15 min at −20°C, the methanol was removed, and PBS was used to hydrate the slides. • The slides were washed once more with PBS. • Two drops of blocking solution was added to each well, and they were incubated for 90 min at room temperature in a moist chamber.
• The blocking solution was removed, and the slides were washed gently with PBS. • The CD58 and CD2 (Santa Cruz Biotechnology) primary antibodies were used at a dilution of […] by diluting with antibody diluent solution provided in kit (2 μl [CD58 Ab] + 2 μl [CD2 Ab] + 196 μl antibody diluent solution per well). • After addition of primary antibody solution, the slides were incubated overnight at 4°C in a moist chamber with gentle shaking.
• The primary antibody solution was removed, and each well was washed very gently with 100 μl of PBS. • The probe solution was prepared using 1:1:4 ratio of positive probe:negative probe:antibody diluent solution, respectively. • After removing PBS, approximately 80 μl of probe solution was added to each well, which were incubated at 37°C for 1 h in a moist chamber.
• The probe solution was discarded, and all wells were washed twice with 100 μl of wash buffer A. • Ligase solution was prepared by mixing together 16 μl of ligation solution + 2 μl of ligase + 62 μl of high purified water. • 80 μl of this freshly prepared ligase solution was added gently to each well, which were incubated at 37°C for 30 min in a moist chamber.
• All procedures from this step forward were carried out in a dark (light-protected) environment. • After removing the ligase solution, the wells were washed gently twice with wash buffer A. • Amplification/polymerase solution was prepared by mixing together 1 μl polymerase + 16 μl amplification (red) solution + 63 μl purified water. • 80 μl of the above solution was added to each well in the dark, and the plates were incubated in a 37°C moist chamber in the dark for 100 min.
• Amplification/polymerase solution was removed from each well, and they were washed gently twice with 120 μl of wash buffer B. • 0.01x wash buffer B (in phosphate-buffered saline [PBS]) was prepared, and each well was washed with this solution. • The well on slides were removed (wells are removed after all the washing step to prepare the slide for microscopic imaging). • Keeping the slide surface slightly wet with 0.01x wash buffer B, a small amount of mounting medium with DAPI solution was added to the slide. • Coverslips were placed over the slides, and images were obtained by using an Olympus Fluoview 1.0 confocal microscope with DAPI and Texas Red filters.
Wash buffers A and B were provided in the kit. The composition of the buffers is not disclosed by the vendor. A bio-protocol by Lin et al. provides the composition of Duolink in situ buffers A and B. The incubation time of 48 h was established by carrying out PLA at 24- and 48-h times.
Control experiments were conducted with HFLS-RA cells and T cells without addition of primary antibodies to CD2 and CD58 but with addition of secondary antibodies and PLA probes. Experiments were performed as described in steps 1–7 above.
Experiments with HFLS-RA cells and T cells were carried out as described above by adding primary and secondary antibodies only to CD58 and with PLA probes. […]

[2] = test system: CD58 on the cell surface of HFLS-RA cells; experiment: Binding of SFTI-a BODIPY conjugate to HFLS-RA cells (fluorescence microscopy); type: cell-based, human; conditions: green fluorescence of BODIPY, Mg+ green filter (excitation 507, emission 531), 60x, concentration not given
Protocol: Synthesis of cyclic peptide SFTI-a, Cyclo(CKASAPPSCYDGDD), was carried out in three major steps: 1) Linear sequence synthesis with an automatic peptide synthesizer (Protein Technologies, Inc., AZ, USA); 2) head-to-tail cyclization; and 3) disulfide bond formation. For fluorescent labeling of peptide SFTI-a, Lys in the peptide sequence was replaced with Lys containing an azide side chain. The azide side chain was used to conjugate fluorescent label 4,4-difluoro-4-bora-3a,4a-diaza-s-indacene (BODIPY), resulting in the conjugate Cyclo(CK-(BODIPY)-ASAPPSCYDGDD). The detailed procedure for synthesis of the peptide is described in our previous work. Peptides SFTI-a and SFTI-a with lysine azide (N3) and fluorescence-labeled SFTI-a were purified by preparative HPLC (Waters Corp., MA, USA) using acetonitrile and water containing 0.1% TFA. Molecular weights of the synthesized peptide and the conjugate were confirmed by mass spectrometry. BODIPY was obtained from Dr Vicente, Department of Chemistry, Louisiana State University, LA, USA.
as §1
The microscopic visualization was carried out on an Olympus Fluoview FV10i confocal microscope. DAPI (excitation 359, emission 461) and Texas Red (excitation 595, emission 612) filters were used for detection purposes at 60x zoom. For SFTI-a BODIPY conjugate, a Mg+ green (excitation 507, emission 531) filter was used. Different images were taken from each well containing different concentrations of SFTI-a and cells only. All images were taken in a single plane and at 60x magnification.

CD58 protein = conditions: cited from earlier work
Text: (§2) In almost all physiological processes, the medium for communication between two cells is facilitated by the interaction of proteins. The up- or down-regulation of proteins and the deregulated interaction of these proteins usually lead to disease conditions. Rational drug designs targeting these protein–protein interactions (PPI) have gained much popularity in the past decade. […] Many proteins interact at the cell surface to send signals inside the cell from the extracellular region, and PPI on the cell surface are targ ...

CD2–CD58 interaction [3] = conditions: cited from earlier work
Text: as §2

[4] = test system: cell adhesion in the immune response; conditions: cell-based in vitro and ex vivo assays; cited from earlier work
Text: as §2

CD58 adhesion domain = conditions: relatively weak but highly specific interaction; background statement, reference printed only at the preceding sentence; read-out: Kd of CD2–CD58 interaction; cited from earlier work
Text: as §2

[5] = listed as BODIPY conjugate of SFTI-a

Row | Molecule | PPI inhibition by BODIPY conjugate (red fluorescence) (CD2–CD58 interaction [1]) | PPI inhibition by BODIPY conjugate (red fluorescence) (CD2–CD58 interaction [1]; [5]) | binding to CD58 on HFLS-RA cell surface [2] | binding to CD58 on HFLS-RA cell surface [2, 5] | reduction in number of red dots (CD2–CD58 interaction [1]; 50 nM SFTI-a) | reduction in number of red dots (CD2–CD58 interaction [1]; 250 nM SFTI-a) | PPI inhibition, number of red dots (ImageJ) (CD2–CD58 interaction [1]; 10 μM SFTI-a) | PPI inhibition, number of red dots (ImageJ) (CD2–CD58 interaction [1]; 50 μM SFTI-a) | decrease in red dots (CD2–CD58 PPI inhibition) (CD2–CD58 interaction [1]; 100 μM SFTI-a, HFLS-RA cells treated 2 h at 4°C, added over Jurkat cells, 48 h at 37°C, confocal microscopy 60x, vs cells without peptide) | PPI inhibition, number of red dots (ImageJ) (CD2–CD58 interaction [1]; 100 μM SFTI-a) | PPI inhibition at different concentrations (dose dependence) (CD2–CD58 interaction [1]; different concentrations of SFTI-a (50 nM, 250 nM, 1 μM, 10 μM, 50 μM, 100 μM), HFLS-RA cells treated 2 h at 4°C, co-culture with Jurkat cells 48 h at 37°C, red dots) | binding to CD58 (CD58 protein) | inhibition of CD2–CD58 interaction (CD2–CD58 interaction [3]) | inhibition of cell adhesion in the immune response, suppression of T-cell immune response [4] | Kd (CD58 adhesion domain)
1 | Cyclo(CK-(BODIPY)-ASAPPSCYDGDD) (bicyclic or more) [SFTI-a conjugate, fluorescently labeled peptide with BODIPY attachment via azide side chain of Lys] | inhibit the interaction between Jurkat cells and HFLS-RA cells | able to inhibit PPI as shown by a decrease in red fluorescence compared to control | bound to the cell surface of HFLS-RA cells as shown by green fluorescence of BODIPY | green fluorescence on HFLS-RA cells due to binding of a conjugate of SFTI-a to CD58 on cells |  |  |  |  |  |  |  |  |  |  | 
2 | Cyclo(CKASAPPSCYDGDD) (bicyclic or more) [SFTI-a] |  |  | bind to CD58 on the cell surface |  | significant reduction in a number of red dots | significant reduction in a number of red dots | significant in comparison with that of untreated wells | significant in comparison with that of untreated wells | significant decrease in red dots; also recorded: decrease in the number of red dots | significant in comparison with that of untreated wells | significant decrease in bright red spots; also recorded: dose-dependent inhibition of the interaction between CD2 and CD58 proteins | binds to the CD58 protein | inhibits CD2–CD58 interaction | potent compound for inhibiting cell adhesion in the immune response | 
3 | CD2: T-cell surface adhesion protein, binding partner of CD58 (protein) KEITNALETWGALGQDINLDIPSFQMSDDIDDIKWEKTSDKKKIAQFRKEKETFKEKDTYKLFKNGTLKIKHLKTDDQDIYKVSIYDTKGKNVLEKIFDLKIQERVSKPKISWTCINTTLTCEVMNGTDPELNLYQDGKHLKLSQRVITHKWTTSLSAKFKCTAGNKVSKESSVEPVSCPEKGLDIYLIIGICGGGSLLMVFVALLVFYITKRKKQRSRRNDEELETRAHRVATEERGRKPHQIPASTPQNPATSQHPPPPPGHRSQAPSHRPPPPGHRVQHQPQKRPPAPSGTQVHQQKGPPLPRPRVQPKPPHGAAENSLSPSSN |  |  |  |  |  |  |  |  |  |  |  |  |  |  | 1 to 10 µM
